Reference: patent US8394986B2, “Phenoxiacetic acid derivatives” (AstraZeneca AB, priority 2003, dated 2013)
Structures can show the parent of a compound that is named as a salt.

Molecular target: T1, rhCRTh2 (Homo sapiens, UniProt Q9Y5Y4)
T1 construct: expressed in transfected cells; membranes prepared
T1 sequence (Q9Y5Y4 1-395): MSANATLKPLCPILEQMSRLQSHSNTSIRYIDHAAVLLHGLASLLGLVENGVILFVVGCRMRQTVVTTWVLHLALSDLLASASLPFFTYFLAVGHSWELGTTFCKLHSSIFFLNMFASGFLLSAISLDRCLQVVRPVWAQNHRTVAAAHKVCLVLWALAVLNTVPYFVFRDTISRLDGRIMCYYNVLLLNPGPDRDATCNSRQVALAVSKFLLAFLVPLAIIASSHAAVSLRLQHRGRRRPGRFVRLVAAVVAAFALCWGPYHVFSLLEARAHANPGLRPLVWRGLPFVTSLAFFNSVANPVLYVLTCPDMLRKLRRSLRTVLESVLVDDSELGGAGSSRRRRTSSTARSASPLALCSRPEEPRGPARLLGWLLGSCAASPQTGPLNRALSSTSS
Assay: Ligand binding assay ([3H]PGD2 SPA, HEK cell membranes)
Conditions: [3H]PGD2 displacement, membranes of HEK cells expressing rhCRTh2/Ga16, SPA beads, 2 hours room temperature
Procedure: [^3H]PGD2 was purchased from Perkin Elmer Life Sciences with a specific activity of 100-210 Ci/mmol All other chemicals were of analytical grade.
HEK cells expressing rhCRTh2/Ga16 were routinely maintained in DMEM containing 10% Foetal Bovine Serum (HyClone), 1 mg/ml geneticin, 2 mM L-glutamine and 1% non-essential amino acids. For the preparation of membranes, the adherent transfected HEKcells were grown to confluence in two layer tissue culture factories (Fisher, catalogue number TKT-170-070E). Maximal levels of receptor expression were induced by addition of […] sodium butyrate for the last 18 hours of culture. The adherent cells were washed once with phosphate buffered saline (PBS, 50 ml per cell factory) and detached by the addition of 50 ml per cell factory of ice-cold membrane homogenisation buffer [20 mM HEPES (pH 7.4), 0.1 mM dithiothreitol, 1 mM EDTA, 0.1 mM phenyl methyl sulphonyl fluoride and 100 μg/ml bacitracin]. […] The final pellet was re-suspended in 4 ml of membrane homogenisation buffer per cell factory used and the protein content determined Membranes were stored at −80° C. in suitable aliquots.
All assays were performed in Corning clear bottomed, white 96-well NBS plates (Fisher). […] (The optimum coating concentrations were determined for each batch of membranes) The beads were pelleted by centrifugation (800×g for 7 minutes at 4° C.), washed once with assay buffer (50 mM HEPES pH 7.4 containing 5 mM magnesium chloride) and finally re-suspended in assay buffer at a bead concentration of 10 mg/ml.
Each assay contained 20 μl of 6.25 nM [^3H]PGD2, 20 μl membrane saturated SPA beads both in assay buffer and 10 μl of compound solution or 13,14-dihydro-15-keto prostaglandin D2 (DK-PGD2, for determination of non-specific binding, Cayman chemical company). […] The assay plate was incubated at room temperature for 2 hours and counted on a Wallac Microbeta liquid scintillation counter (1 minute per well).

IC50 [nM]	SMILES
10	CCS(=O)(=O)c1ccc(Cc2cc(C(F)(F)F)ccc2OCC(=O)O)cc1 [Example 4, [2-[4-(Ethylsulfonyl)benzyl]-4-(trifluoromethyl)phenoxy]acetic acid]
10	CCS(=O)(=O)c1ccc(Oc2cc(Cl)ccc2OCC(=O)O)cc1 [Example 5, [4-Chloro-2-[4-(ethylsulfonyl)phenoxy]phenoxy]acetic acid, sodium salt]
1	CCS(=O)(=O)c1ccc(Oc2cc(F)ccc2OCC(=O)O)c(Cl)c1 [Example 43, {2-[2-Chloro-4-(ethylsulfonyl)phenoxy]-4-fluorophenoxy}acetic acid]
